Measurements taken from patent publication US5258362A, “Renin inhibiting compounds” (Abbott Laboratories, priority 1992, dated 1993).

What follows are compounds tested against T1, human renal renin (Homo sapiens, UniProt P00797) (assay: Inhibition of human renal renin in vitro (angiotensin I formed, measured by radioimmunoassay)). Conditions: human renal renin with renin substrate (human angiotensinogen), 37° C., pH 6.0.
T1 construct: human renal renin, free from acid proteolytic activity; from tissue; host or cells: human kidney (from the word 'renal')
T1 sequence (P00797 67-406): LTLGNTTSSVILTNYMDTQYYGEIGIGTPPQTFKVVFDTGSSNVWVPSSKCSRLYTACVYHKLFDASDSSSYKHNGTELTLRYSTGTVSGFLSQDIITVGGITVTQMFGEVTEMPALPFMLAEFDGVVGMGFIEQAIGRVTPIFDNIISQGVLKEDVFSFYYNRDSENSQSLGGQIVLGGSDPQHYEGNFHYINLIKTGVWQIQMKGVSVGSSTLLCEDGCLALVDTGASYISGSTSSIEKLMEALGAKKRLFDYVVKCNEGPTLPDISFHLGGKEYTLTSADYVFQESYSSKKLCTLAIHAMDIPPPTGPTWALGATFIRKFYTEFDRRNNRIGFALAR
Format: biochemical
Description: At the end of the incubation, the amount of angiotensin I formed is measured by radioimmunoassay and the molar concentration required to cause 50% inhibition, expressed as the IC50 is calculated.
Work on `CCCC[C@H](NC(=O)C(Cc1ccccc1)Cn1ccnc1)C(=O)N[C@@H](CC1CCCCC1)[C@@H](O)[C@H]1OC[C@@H]1CC` (mixture of isomers) [Example 154, (2RS)-2-Benzyl-3-(imidazol-1-yl)propionyl-(nor)Leucine Amide of (1R,2S,2'S,3'S)-2-Amino-3-cyclohexyl-1-[3'-(ethyl)oxetan-2'-yl]-1-(hydroxy)propane] yielded an IC50 of 0.7 nM.
Compound `CC[C@H]1CO[C@@H]1[C@H](O)[C@H](CC1CCCCC1)NC(=O)C(Cc1cnc[nH]1)NC(=O)C(Cc1ccccc1)NC(=O)OC(C)(C)C` (stereo partly drawn) [Example 40, Boc-Phe-His Amide of (1R,2S,2'S,3'S)-2-Amino-3-cyclohexyl-1-[3'-(ethyl)oxetan-2'-yl]-1-(hydroxy)propane] has an IC50 of 0.47 nM.
Compound `CC(C)[C@H]1CO[C@@H]1[C@H](O)[C@H](CC1CCCCC1)NC(=O)[C@H](Cc1cnc[nH]1)NC(=O)[C@H](Cc1ccccc1)NC(=O)OC(C)(C)C` [Example 41, Boc-Phe-His Amide of (1R,2S,2'S,3'S)-2-Amino-3-cyclohexyl-1-hydroxy-1-[3'-(isopropyl)oxetan-2'- yl]propane] has an IC50 of 0.61 nM.
`CCC[C@H]1CO[C@@H]1[C@H](O)[C@H](CC1CCCCC1)NC(=O)C(Cc1cnc[nH]1)NC(=O)C(Cc1ccccc1)NC(=O)OC(C)(C)C` (stereo partly drawn) [Example 43, Boc-Phe-His Amide of (1R,2S,2'S,3'S)-2-Amino-3-cyclohexyl-1-hydroxy-1-[3'-(propyl)oxetan-2'-yl]propane] showed an IC50 of 0.38 nM.
For `CC(C)C[C@H]1CO[C@@H]1[C@H](O)[C@H](CC1CCCCC1)NC(=O)[C@H](Cc1cnc[nH]1)NC(=O)[C@H](Cc1ccccc1)NC(=O)OC(C)(C)C` [Example 44, Boc-Phe-His Amide of (1R,2S,2'S,3'S)-2-Amino-3-cyclohexyl-1-hydroxy-1-[3'-(isobutyl)oxetan-2'-yl]propane], the IC50 was 1.1 nM.
`CC(C)(C)OC(=O)NC(Cc1ccccc1)C(=O)NC(Cc1cnc[nH]1)C(=O)N[C@@H](CC1CCCCC1)[C@@H](O)[C@@H]1CCO1` (stereo partly drawn) [Example 45, Boc-Phe-His Amide of (1R,2S,2'S)-2-Amino-3-cyclohexyl-1-hydroxy-1-(oxetan-2'-yl)propane] was tested, and the IC50 was 1.2 nM.
Work on `C[C@H]1CO[C@@H]1[C@H](O)[C@H](CC1CCCCC1)NC(=O)C(Cc1cnc[nH]1)NC(=O)C(Cc1ccccc1)NC(=O)OC(C)(C)C` (stereo partly drawn) [Example 46, Boc-Phe-His Amide of (1R,2S,2'S,3'S)-2-Amino-3-cyclohexyl-1-hydroxy-1-[3'-(methyl)oxetan-2'-yl]propane] yielded an IC50 of 0.51 nM.
Work on `CC([C@H]1CO[C@@H]1[C@H](O)[C@H](CC1CCCCC1)NC(=O)[C@H](Cc1cnc[nH]1)NC(=O)[C@H](Cc1ccccc1)NC(=O)OC(C)(C)C)C(F)(F)F` (stereo partly drawn) [Example 47, Boc-Phe-His Amide of (1R,2S,2'S,3'S)-2-Amino-3-cyclohexyl-1-hydroxy-1-[3'-(1,1,1-trifluoroisopropyl)oxetan-2'-yl]propane] yielded an IC50 of 1.2 nM.
`CC(C)(C)OC(=O)N[C@@H](Cc1ccccc1)C(=O)N[C@@H](Cc1cnc[nH]1)C(=O)N[C@@H](CC1CCCCC1)[C@@H](O)[C@H]1OCC1(C)C` [Example 48, Boc-Phe-His Amide of (1R,2S,2'S)-2-Amino-3-cyclohexyl-1-[3',3'-(dimethyl)oxetan-2'-yl]-1-(hydroxy)propane] was tested, and the IC50 was 1 nM.
In the case of `CC[C@H]1CO[C@@H]1[C@H](O)[C@H](CC1CCCCC1)NC(=O)C(Cc1cscn1)NC(=O)[C@H](Cc1ccccc1)CS(=O)(=O)N1CCN(C)CC1` (stereo partly drawn) [Example 68, (2S) 2-Benzyl-3-(1-methyl-piperazin-4-ylsulfonyl)propionyl-(4-thiazolyl)alanineAmide of (1R,2S,2'S,3'S)-2-Amino-3-cyclohexyl-1-[3'-(ethyl)oxetan-2'-yl]-1-(hydroxy)propane], the IC50 is reported as 0.19 nM.
Work on `CC[C@H]1CO[C@@H]1[C@H](O)[C@H](CC1CCCCC1)NC(=O)[C@H](Cc1cscn1)NC(=O)[C@@H](CC(=O)N1CCOCC1)Cc1ccccc1` [Example 69, (2R)-2-Benzyl-3-(morpholinocarbonyl)propionyl-(4-thiazolyl)alanine Amide of (1R,2S,2'S,3'S)-2-Amino-3-cyclohexyl-1-[3'-(ethyl)oxetan-2'-yl]-1-(hydroxy)propane] yielded an IC50 of 0.25 nM.
Work on `CC[C@H]1CO[C@@H]1[C@H](O)[C@H](CC1CCCCC1)NC(=O)C(Cc1cscn1)NC(=O)[C@@H](CC(=O)N1CCN(C)CC1)Cc1ccccc1` (stereo partly drawn) [Example 70, (2R)-2-Benzyl-3-[(4-methylpiperazin-1-yl)carbonyl]propionyl-(4-thiazolyl)alanine Amide of (1R,2S,2'S,3'S)-2-Amino-3-cyclohexyl-1-[3'-(ethyl)oxetan-2'-yl]-1-(hydroxy)propane] yielded an IC50 of 0.2 nM.
Work on `CC[C@H]1CO[C@@H]1[C@H](O)[C@H](CC1CCCCC1)NC(=O)[C@H](Cc1cscn1)NC(=O)[C@@H](CC(=O)N(C)CCc1ccccn1)Cc1ccccc1` [Example 71, (2R)-2-Benzyl-3-[(2-pyridin-2-ylethyl)methylaminocarbonyl]propionyl-(4-thiazolyl)alanine Amide of (1R,2S,2'S,3'S)-2-Amino-3-cyclohexyl-1-[3'-(ethyl)oxetan-2'-yl]-1-(hydroxy)propane] yielded an IC50 of 0.27 nM.
Compound `CCCC[C@H](O[C@@H](Cc1ccccc1)C(=O)N1CCC(OCOC)CC1)C(=O)N[C@@H](CC1CCCCC1)[C@@H](O)[C@H]1OC[C@@H]1C(C)C` [Example 72, (2S)-[(1S)-[(Methoxymethoxy)piperidin-1-yl]carbonyl-2-phenylethoxy]hexanoicAcid Amide of (1R,2S,2'S,3'S)-2-Amino-3-cyclohexyl-1-[3'-(isopropyl)oxetan-2'-yl]-1-(hydroxy)propane] has an IC50 of 0.8 nM.
Work on `CC[C@H]1CO[C@@H]1[C@H](O)[C@H](CC1CCCCC1)NC(=O)C(Cc1cscn1)NC(=O)[C@H](Cc1ccccc1)Cn1ccnc1` (stereo partly drawn) [Example 76, (2R)-2-Benzyl-3-(imidazol-1-yl)propionyl-(4-thiazolyl)alanine Amide of (1R,2S,2'S,3'S)-1-Amino-3-cyclohexyl-1-[3'-(ethyl)oxetan-2'-yl]-1-(hydroxy)propane] yielded an IC50 of 0.28 nM.
In the case of `CCCC[C@H](NC(=O)[C@@H](CC(=O)N1CCN(C)CC1)Cc1ccccc1)C(=O)N[C@@H](CC1CCCCC1)[C@@H](O)[C@H]1OC[C@@H]1CC` [Example 155, (2R)-2-Benzyl-3-(4-methylpiperazin-1-ylcarbonyl)propionyl(nor)Leucine Amide of (1R,2S,2'S,3'S)-2-Amino-3-cyclohexyl-1-[3'-(ethyl)oxetan-2'-yl]-1-(hydroxy)propane], the IC50 is reported as 0.37 nM.
`CC[C@H]1CO[C@@H]1[C@H](O)[C@H](CC1CCCCC1)NC(=O)[C@H](CC(C)C)NC(=O)[C@@H](CC(=O)N1CCN(C)CC1)Cc1ccccc1` [Example 163, (2R)-2-Benzyl-3-(4-methylpiperazin-1-ylcarbonyl)propionyl-leucine Amide of (1R,2S,2'S,3'S)-2-Amino-3-cyclohexyl-1-[3'-(ethyl)oxetan-2'-yl]-1-(hydroxy)propane] showed an IC50 of 0.51 nM.
For `CCOC(=O)NC(Cc1ccccc1)C(=O)NC(CC(C)C)C(=O)N[C@@H](CC1CCCCC1)[C@@H](O)[C@H]1OC[C@@H]1CC` (stereo partly drawn) [Example 164, Ethoxycarbonyl-Phe-Leu Amide of (1R,2S,2'S,3'S)-2-Amino-3-cyclohexyl-1-[3'-(ethyl)oxetan-2'-yl]-1-(hydroxy)propane], the IC50 was 0.46 nM.
Compound `CC[C@H]1CO[C@@H]1[C@H](O)[C@H](CC(C)C)NC(=O)C(Cc1cnc[nH]1)NC(=O)C(Cc1ccccc1)NC(=O)OC(C)(C)C` (stereo partly drawn) [Example 171, Boc-Phe-His Amide of (1R,2S,2'S,3'S)-2-Amino-1-[3'-(ethyl)oxetan-2'-yl]-1-hydroxy-4-(methyl)pentane] has an IC50 of 0.5 nM.
For `CC[C@H]1CO[C@@H]1[C@H](O)[C@H](CC(C)C)NC(=O)C(Cc1cscn1)NC(=O)[C@H](Cc1ccccc1)CS(=O)(=O)N1CCN(C)CC1` (stereo partly drawn) [Example 178, (2S) 2-Benzyl-3-(1-methyl-piperazin-4-ylsulfonyl)propionyl-(4-thiazolyl)alanineAmide of (1R,2S,2'S,3'S)-2-Amido-1-[3'-(ethyl)oxetan-2'-yl]-1-hydroxy-4-(methyl)pentane], the IC50 was 0.38 nM.
With `CC[C@H]1CO[C@@H]1[C@H](O)[C@H](CC(C)C)NC(=O)C(Cc1cscn1)NC(=O)[C@H](Cc1ccccc1)Cn1ccnc1` (stereo partly drawn) [Example 181, (2R)-2-Benzyl-3-(imidazol-1-yl)propionyl-(4-thiazolyl)alanine Amide of (1R,2S,2S',3'S)-2-Amino-1-(3'-(ethyl)oxetan-2'-yl]-1-hydroxy-4-(methyl)pentane] the IC50 was 3.7 nM.
With `CC[C@H]1CO[C@@H]1[C@H](O)[C@H](CC1CCCCC1)NC(=O)[C@H](CC(C)C)NC(=O)[C@H](Cc1ccccc1)Cn1ccnc1` [Example 182, (2R)-2-Benzyl-3-(imidazol-1-yl)propionyl-Leucine Amide of (1R,2S,2'S,3'S)-2-Amino-3-cyclohexyl-1-[3'-(ethyl)oxetan-2'-yl]-1-(hydroxy)propane] the IC50 was 0.65 nM.
`CC[C@H]1CO[C@@H]1[C@H](O)[C@H](CC1CCCCC1)NC(=O)[C@H](CC(C)C)NC(=O)C(Cc1ccccc1)Cc1ccccc1` [Example 183, Dibenzylacetyl-Leucine Amide of (1R,2S,2'S,3'S)-2-Amino-3-cyclohexyl-1-[3'-(ethyl)oxetan-2'-yl]-1-(hydroxy)propane] was tested, and the IC50 was 1.2 nM.
In the case of `CCCCC(NC(=O)CCc1ccccc1)C(=O)N[C@@H](CC1CCCCC1)[C@@H](O)[C@H]1OC[C@@H]1CC` (stereo partly drawn) [Example 186, Dihydrocinnamoyl-(nor)Leucine Amide of (1R,2S,2'S,3'S)-2-Amino-3-cyclohexyl-1-[3'-(ethyl)oxetan-2'-yl]-1-(hydroxy)propane], the IC50 is reported as 3.3 nM.
